Reference: the OPERA property sets (Mansouri et al. 2018)

Compound	logP
COc1c(OC)c(OC(C)=O)c2cc(F)ccc2c1OC(C)=O	2.75
COc1c(OC)c(OC(C)=O)c2cc(Cl)ccc2c1OC(C)=O	3.26
COc1c(OC)c(OC(=O)C(C)(C)C)c2ccccc2c1OC(=O)C(C)(C)C	5.69
COc1c(OC)c(OC(C)=O)c2c(Cl)cccc2c1OC(C)=O	3.16
COc1c(OC)c(OC(=O)C(C)C)c2ccccc2c1OC(=O)C(C)C	4.61
COc1c(OC)c(OC(C)=O)c2c(C#N)cccc2c1OC(C)=O	2.51
COc1c(OC)c(OC(C)=O)c2cc(Br)ccc2c1OC(C)=O	3.39
COc1ccc2c(OC(C)=O)c(OC)c(OC)c(OC(C)=O)c2c1	2.39
COc1c(OC)c(OC(C)=O)c2ccccc2c1OC(C)=O	2.39
COc1c(OC)c(OC(C)=O)c2cc(C)ccc2c1OC(C)=O	2.86
COc1c(OC)c(OC(C)=O)c2cc(C#N)ccc2c1OC(C)=O	2.28
COc1c(OC)c(OC(C)=O)c2c(OC)cccc2c1OC(C)=O	2.43
